ChEMBL document CHEMBL1201862, “PubChem BioAssay data set” (2004)
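These data come from cells grown in 96-well plates and exposed to compound for 48 hours at five concentrations. Abbreviation: GI50, concentration required for 50% inhibition of growth.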 Active and inactive are the calls of the source. No stated cut-off is given here; in the data, active = GI50 up to about 1.1 µM and inactive = higher.

Assays:
Assay in all cases: NCI tumour cell line growth inhibition, 48 h
[1] = test system: HCT-15
[2] = test system: SF-539
[3] = test system: UO-31
[4] = test system: SF-295
[5] = test system: MDA-MB-231
[6] = test system: M14
[7] = test system: KM12
[8] = test system: UACC-62
[9] = test system: SF-268
[10] = test system: BT-549
[11] = test system: A498
[12] = test system: OVCAR-8
[13] = test system: HT-29
[14] = test system: Hs-578T
[15] = test system: DU-145
[16] = test system: HOP-92
[17] = test system: HCT-116
[18] = test system: HCC 2998
[19] = test system: RXF 393
[20] = test system: SK-MEL-28
[21] = test system: SK-MEL-2
[22] = test system: SNB-19
[23] = test system: Malme-3M
[24] = test system: OVCAR-4
[25] = test system: 786-0
[26] = test system: UACC-257
[27] = test system: COLO 205
[28] = test system: ACHN
[29] = test system: A549
[30] = test system: SR
[31] = test system: OVCAR-5
[32] = test system: NCI-H226
[33] = test system: MDA-N
[34] = test system: EKVX
[35] = test system: MOLT-4
[36] = test system: NCI-H460
[37] = test system: NCI-H23
[38] = test system: HL-60
[39] = test system: CCRF-CEM
[40] = test system: SN12C
[41] = test system: U-251
[42] = test system: T47D
[43] = test system: LOX IMVI
[44] = test system: CAKI-1
[45] = test system: HOP-62
[46] = test system: NCI/ADR-RES
[47] = test system: TK-10
[48] = test system: MCF7
[49] = test system: MDA-MB-435
[50] = test system: SW-620
[51] = test system: K562
[52] = test system: SK-MEL-5
[53] = test system: RPMI-8226
[54] = test system: OVCAR-3
[55] = test system: SK-OV-3
[56] = test system: SNB-75
[57] = test system: PC-3
[58] = test system: IGROV-1
[59] = test system: NCI-H522

With `CC(=O)CC(=O)N1CCOC1=O` the GI50 [1] was over 10 µM, the GI50 [2] was > 10 µM (inactive) and the GI50 [3] was > 10 µM (inactive). For the same molecule, the GI50 [4] was > 10 µM (inactive), the GI50 [5] was > 10 µM (inactive) and the GI50 [6] was > 10 µM (inactive). The GI50 [7] was > 10 µM (inactive), the GI50 [8] was > 10 µM (inactive) and the GI50 [9] was > 10 µM (inactive). The GI50 [10] was > 10 µM (inactive), the GI50 [11] was > 10 µM (inactive) and the GI50 [12] was > 10 µM (inactive). The GI50 [13] was > 10 µM (inactive), the GI50 [14] was > 10 µM (inactive) and the GI50 [15] was > 10 µM (inactive). The GI50 [16] was > 10 µM (inactive), the GI50 [17] was > 10 µM (inactive) and the GI50 [18] was > 10 µM (inactive). For the same molecule, the GI50 [19] was > 10 µM (inactive), the GI50 [20] was > 10 µM (inactive) and the GI50 [21] was > 10 µM (inactive). For the same molecule, the GI50 [22] was > 10 µM (inactive), the GI50 [23] was > 10 µM (inactive) and the GI50 [24] was > 10 µM (inactive). For the same molecule, the GI50 [25] was > 10 µM (inactive), the GI50 [26] was > 10 µM (inactive) and the GI50 [27] was > 10 µM (inactive). The GI50 [28] was > 10 µM (inactive), the GI50 [29] was > 10 µM (inactive) and the GI50 [30] was > 10 µM (inactive). For the same molecule, the GI50 [31] was > 10 µM (inactive), the GI50 [32] was > 10 µM (inactive) and the GI50 [33] was > 10 µM (inactive). For the same molecule, the GI50 [34] was > 10 µM (inactive), the GI50 [35] was > 10 µM (inactive) and the GI50 [36] was > 10 µM (inactive). The GI50 [37] was > 10 µM (inactive), the GI50 [38] was > 10 µM (inactive) and the GI50 [39] was > 10 µM (inactive). The GI50 [40] was > 10 µM (inactive), the GI50 [41] was > 10 µM (inactive) and the GI50 [42] was > 10 µM (inactive). The GI50 [43] was > 10 µM (inactive), the GI50 [44] was > 10 µM (inactive) and the GI50 [45] was > 10 µM (inactive). The GI50 [46] was > 10 µM (inactive), the GI50 [47] was > 10 µM (inactive) and the GI50 [48] was > 10 µM (inactive). The GI50 [49] was > 10 µM (inactive), the GI50 [50] was > 10 µM (inactive) and the GI50 [51] was > 10 µM (inactive). For the same molecule, the GI50 [52] was > 10 µM (inactive), the GI50 [53] was > 10 µM (inactive) and the GI50 [54] was > 10 µM (inactive). For the same molecule, the GI50 [55] was > 10 µM (inactive), the GI50 [56] was 5.26 µM (inactive) and the GI50 [57] was > 10 µM (inactive). The GI50 [58] was > 10 µM (inactive).

For `COC(=O)[C@]1(C)[C@H]2C[C@H]3O[C@H]4[C@H](O)[C@@H](O)OC(CC(O)C(C5=CC(=O)OC5)C(C5=CC(=O)OC5)C(O)CC56CCCCC7[C@@H](C)[C@H](C[C@H]8[C@](C)(C(=O)OC)[C@H](O)CC[C@]78C)O[C@H]([C@@H](O)[C@H](O)O5)[C@H]6O)(CCCCC([C@@H]3C)[C@]2(C)CC[C@@H]1O)[C@H]4O` (stereo partly drawn), the GI50 [1] was 0.143 µM, the GI50 [2] was 0.0394 µM (active) and the GI50 [3] was 0.057 µM (active). The GI50 [4] was 0.0767 µM (active), the GI50 [5] was 0.347 µM (active) and the GI50 [6] was 0.332 µM (active). The GI50 [7] was 0.353 µM (active), the GI50 [8] was 0.33 µM (active) and the GI50 [9] was < 0.0272 µM (active). For the same molecule, the GI50 [10] was 0.0625 µM (active), the GI50 [11] was 0.0916 µM (active) and the GI50 [12] was 0.188 µM (active). The GI50 [13] was 0.157 µM (active), the GI50 [14] was < 0.0251 µM (active) and the GI50 [15] was 0.0628 µM (active). The GI50 [16] was 0.281 µM (active), the GI50 [17] was 0.0404 µM (active) and the GI50 [18] was 0.655 µM (active). For the same molecule, the GI50 [19] was 0.0356 µM (active), the GI50 [20] was 0.262 µM (active) and the GI50 [21] was 0.237 µM (active). For the same molecule, the GI50 [22] was 0.372 µM (active), the GI50 [23] was 0.0989 µM (active) and the GI50 [24] was 0.147 µM (active). The GI50 [25] was 0.0318 µM (active), the GI50 [26] was 0.244 µM (active) and the GI50 [27] was 0.338 µM (active). For the same molecule, the GI50 [28] was < 0.0218 µM (active), the GI50 [59] was < 0.01 µM (active) and the GI50 [29] was 0.0286 µM (active). The GI50 [30] was 0.0545 µM (active), the GI50 [31] was 0.592 µM (active) and the GI50 [32] was 0.973 µM (active). The GI50 [33] was 0.138 µM (active), the GI50 [34] was 0.0295 µM (active) and the GI50 [35] was < 0.0184 µM (active). For the same molecule, the GI50 [36] was 0.0233 µM (active), the GI50 [37] was 0.0439 µM (active) and the GI50 [38] was 0.0513 µM (active). For the same molecule, the GI50 [39] was 0.0603 µM (active), the GI50 [40] was < 0.021 µM (active) and the GI50 [41] was 0.194 µM (active). For the same molecule, the GI50 [42] was 0.299 µM (active), the GI50 [43] was 0.0993 µM (active) and the GI50 [44] was 0.0488 µM (active). The GI50 [45] was 0.065 µM (active), the GI50 [46] was 0.0973 µM (active) and the GI50 [47] was < 0.0391 µM (active). For the same molecule, the GI50 [48] was 0.111 µM (active), the GI50 [49] was 0.247 µM (active) and the GI50 [50] was 0.168 µM (active). For the same molecule, the GI50 [51] was 0.234 µM (active), the GI50 [52] was 0.0296 µM (active) and the GI50 [54] was 0.103 µM (active). The GI50 [55] was 0.302 µM (active), the GI50 [56] was 0.129 µM (active) and the GI50 [57] was 0.065 µM (active). The GI50 [58] was 0.0959 µM (active).

With `CC(=O)Oc1ccc(/C=C/C(=O)OCCCOC(=O)/C=C/c2ccc(OC(C)=O)c(OC(C)=O)c2)cc1OC(C)=O` the GI50 [1] was over 100 µM, the GI50 [2] was > 100 µM (inactive) and the GI50 [3] was > 100 µM (inactive). The GI50 [4] was 77.4 µM (inactive), the GI50 [5] was > 100 µM (inactive) and the GI50 [6] was > 100 µM (inactive). The GI50 [7] was > 100 µM (inactive), the GI50 [8] was > 100 µM (inactive) and the GI50 [9] was > 100 µM (inactive). The GI50 [10] was > 100 µM (inactive), the GI50 [11] was > 100 µM (inactive) and the GI50 [12] was > 100 µM (inactive). The GI50 [13] was > 100 µM (inactive), the GI50 [14] was > 100 µM (inactive) and the GI50 [15] was > 100 µM (inactive). For the same molecule, the GI50 [16] was > 100 µM (inactive), the GI50 [17] was 58.1 µM (inactive) and the GI50 [18] was > 100 µM (inactive). The GI50 [19] was > 100 µM (inactive), the GI50 [20] was > 100 µM (inactive) and the GI50 [21] was > 100 µM (inactive). The GI50 [22] was > 100 µM (inactive), the GI50 [23] was > 100 µM (inactive) and the GI50 [24] was > 100 µM (inactive). For the same molecule, the GI50 [25] was 93.1 µM (inactive), the GI50 [26] was > 100 µM (inactive) and the GI50 [27] was > 100 µM (inactive). For the same molecule, the GI50 [28] was > 100 µM (inactive), the GI50 [59] was > 100 µM (inactive) and the GI50 [29] was > 100 µM (inactive). For the same molecule, the GI50 [30] was > 100 µM (inactive), the GI50 [31] was > 100 µM (inactive) and the GI50 [33] was > 100 µM (inactive). For the same molecule, the GI50 [34] was > 100 µM (inactive), the GI50 [35] was > 100 µM (inactive) and the GI50 [36] was > 100 µM (inactive). For the same molecule, the GI50 [37] was > 100 µM (inactive), the GI50 [38] was < 0.01 µM (active) and the GI50 [40] was > 100 µM (inactive). For the same molecule, the GI50 [41] was > 100 µM (inactive), the GI50 [42] was > 100 µM (inactive) and the GI50 [43] was > 100 µM (inactive). The GI50 [44] was > 100 µM (inactive), the GI50 [45] was 51.2 µM (inactive) and the GI50 [46] was > 100 µM (inactive). The GI50 [47] was > 100 µM (inactive), the GI50 [48] was > 100 µM (inactive) and the GI50 [49] was > 100 µM (inactive). The GI50 [50] was > 100 µM (inactive), the GI50 [51] was > 100 µM (inactive) and the GI50 [52] was > 100 µM (inactive). For the same molecule, the GI50 [53] was > 100 µM (inactive), the GI50 [54] was > 100 µM (inactive) and the GI50 [55] was > 100 µM (inactive). For the same molecule, the GI50 [56] was > 100 µM (inactive), the GI50 [57] was > 100 µM (inactive) and the GI50 [58] was > 100 µM (inactive).
